Test results published in PMC5999181, “UMP kinase activity is involved in proper chloroplast development in rice” (Photosynthesis Research, 2018).

Target: T1, YL2 (YL2-His) (Oryza sativa, UniProt Q5JJV9)
T1 construct: gene Os01g0965400; full-length cDNA (351 residues including putative 58-residue transit peptide) in pET44a, E. coli BL21, Ni-NTA
T1 sequence (Q5JJV9 1-351): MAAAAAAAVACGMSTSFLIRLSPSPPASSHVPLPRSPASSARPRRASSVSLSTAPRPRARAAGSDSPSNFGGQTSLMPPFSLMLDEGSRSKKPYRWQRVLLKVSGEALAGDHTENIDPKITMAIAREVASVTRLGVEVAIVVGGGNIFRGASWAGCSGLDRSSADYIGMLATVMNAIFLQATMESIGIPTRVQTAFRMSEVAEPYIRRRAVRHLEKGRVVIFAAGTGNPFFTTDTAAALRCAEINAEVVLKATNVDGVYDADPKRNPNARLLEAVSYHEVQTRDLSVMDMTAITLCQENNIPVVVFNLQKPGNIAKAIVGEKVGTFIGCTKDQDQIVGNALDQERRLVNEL
Test: Kinase-Glo luminescence (residual ATP)
Format: biochemical
Conditions: 0.2 mM UMP, 10 μM ATP, 10 mM MgCl2, 1 mM DTT, 50 mM Tris-HCl pH 7.5, 30 °C, 0.5 h

Row | SMILES | Kinase-Glo luminescence (residual ATP)
1 | O=c1ccn([C@@H]2O[C@H](COP(=O)(O)O)[C@@H](O)[C@H]2O)c(=O)[nH]1 [UMP] | confirming that YL2 has prokaryotic UMP kinase activity in vitro
2 | Nc1ncnc2c1ncn2[C@@H]1O[C@H](COP(=O)(O)OP(=O)(O)OP(=O)(O)O)[C@@H](O)[C@H]1O [ATP] | decreased levels of RLU, reflecting the amount of residual ATP remaining after the UMP kinase reaction
